Data taken from ChEMBL document CHEMBL5325506, “Discovery of neo-Clerodane Diterpenoids from Ajuga campylantha as Neuroprotective Agents against Ferroptosis and Neuroinflammation” (J Nat Prod, 2023).
pEC50, pIC50: −log10 of the molar value. Activity calls are given as the source filed them. No cut-off for these calls is given here.

Assays:
HT-22 [1] = assay: Cytotoxicity against mouse HT-22 cells assessed as reduction in cell viability at 30 uM incubated for 24 hrs by MTT assay; format: toxicity, cell-based; conditions: ht-22, 24 h
HT-22 [2] = assay: Inhibition of RSL3-induced ferroptosis in mouse HT-22 cells assessed as increase in cell viability at 30 uM incubated for 24 hrs by MTT assay; format: functional, cell-based
[3] = Metal chelating activity assessed as Fe2+-compound complex formation at 50 mM in presence of FeSO4 by UV-Visible spectrophotometry
BV-2 [4] = assay: Anti-inflammatory activity in mouse BV-2 cells assessed as inhibition of LPS-induced NO accumulation measured after 24 hrs by Griess reagent-based analysis; format: functional, cell-based; conditions: BV-2, 24 h
BV-2 [5] = assay: Cytotoxicity against mouse BV-2 cells assessed as reduction in cell viability at 10 to 30 uM incubated for 24 hrs by MTT assay; format: toxicity, cell-based; conditions: bv-2, 24 h, dose 10-30 µM
HT-22 [6] = assay: Inhibition of RSL3-induced ferroptosis in mouse HT-22 cells assessed as downregulation of PTGS2 mRNA expression at 10 to 30 uM incubated for 4 hrs by qRT-PCR analysis; format: functional, cell-based; conditions: dose 10-30 µM
HT-22 [7] = assay: Inhibition of RSL3-induced ferroptosis in mouse HT-22 cells assessed as increase in cell viability incubated for 24 hrs by MTT assay; format: functional, cell-based; conditions: HT-22, 24 h
HT-22 [8] = assay: Inhibition of H2O2-induced necrosis in mouse HT-22 cells at 30 uM incubated for 24 hrs; format: functional, cell-based
HT-22 [9] = assay: Inhibition of RSL3-induced ferroptosis in mouse HT-22 cells assessed as reduction in lipid accumulation incubated for 4 hrs by BODIPY-C11 based flow cytometric analysis; format: functional, cell-based; conditions: dose 3-30 µM
HT-22 [10] = assay: Inhibition of RSL3-induced ferroptosis in mouse HT-22 cells assessed as reduction in cytosolic ROS accumulation incubated for 4 hrs by carboxy-H2DCFDA based flow cytometric analysis; format: functional, cell-based; conditions: dose 3-30 µM
HT-22 [11] = assay: Inhibition of STS-induced apoptosis in mouse HT-22 cells at 30 uM incubated for 24 hrs; format: functional, cell-based
[12] = Antioxidant activity assessed as DPPH radical scavenging activity at 100 uM measured after 30 mins by microplate spectrophotometer analysis; format: functional
HT-22 [13] = assay: Inhibition of TNFalpha/AZD5582/Z-VAD-fmk induced necroptosis in mouse HT-22 cells at 30 uM incubated for 24 hrs; format: functional, cell-based
HT-22 [14] = assay: Inhibition of glutamate-induced ferroptosis in mouse HT-22 cells at 30 uM incubated for 24 hrs; format: functional, cell-based
HT-22 [15] = assay: Reversal of RSL3-induced morphological changes in mouse HT-22 cells incubated for 24 hrs; format: functional, cell-based; conditions: dose 3-30 µM

Structure (SMILES)	Activity (HT-22 [1])	also measured
C[C@@H]1C[C@H](O)[C@]2(C)[C@H](CCC[C@]2(O)CO)[C@@]1(C)CCc1ccoc1	Non-Toxic	inhibition (HT-22 [2]): Active
C=C1CCC[C@@H]2[C@@](C)(CCC3=C[C@@H](OCC)O[C@@H]3OCC)[C@H](C)C[C@H](O)[C@@]12C	Non-Toxic	
CC(=O)OC[C@@]1(O)CCC[C@@H]2[C@@](C)(CCc3ccoc3)[C@H](C)C[C@H](O)[C@]21C	Non-Toxic	
CC(=O)N(O)CCCCCNC(=O)CCC(=O)N(O)CCCCCNC(=O)CCC(=O)N(O)CCCCCN		Activity [3]: Active
Oc1ccc(/C=C/c2cc(O)cc(O)c2)cc1 [RESVERATROL]		pIC50 (BV-2 [4]): 4.49
COC1C=C(CC[C@@]2(C)[C@H](C)C[C@H](O)[C@]3(COC(C)=O)[C@@H]2CCC[C@]32CO2)C(=O)O1 (stereo partly specified)	Non-Toxic	
C[C@@H]1C[C@H](C)C2=C(CO)CCC[C@@H]2[C@@]1(C)CCc1ccoc1	Non-Toxic	inhibition (HT-22 [2]): Active
C=C1CCC[C@@H]2[C@@](C)(CCC3=CC(O)OC3=O)[C@H](C)C[C@H](O)[C@@]12C (stereo partly specified)	Non-Toxic	
C=C1CCC[C@@H]2[C@@](C)(CC[C@]3(O)[C@@H](OCC)O[C@H](OCC)[C@H]3O)[C@H](C)C[C@H](O)[C@@]12C	Non-Toxic	
C=C1CCC[C@@H]2[C@@](C)(CCC3=C[C@H](OCC)O[C@@H]3OCC)[C@H](C)C[C@H](O)[C@@]12C	Non-Toxic	
C=C1CCC[C@@H]2[C@@](C)(CCc3ccoc3)[C@H](C)C[C@H](O)[C@@]12C	Non-Toxic	inhibition (HT-22 [2]): Active
C=C1CCC[C@H]2[C@@]1(C)C(=O)C[C@@H](C)[C@]2(C)CCC1=CC(OC)OC1=O (stereo partly specified)	Non-Toxic	pIC50 (BV-2 [4]): 5.01; Activity (BV-2 [5]): Non-Toxic
C=C1CCC[C@@H]2[C@@](C)(CCC3=C[C@H](OCC)OC3=O)[C@H](C)C[C@H](O)[C@@]12C	Non-Toxic	
C=C1CCC[C@@H]2[C@@](C)(CCC3=CC(OC)OC3=O)[C@H](C)C[C@H](O)[C@@]12C (stereo partly specified)	Non-Toxic	pIC50 (BV-2 [4]): 4.39
C=C1CCC[C@@H]2[C@@](C)(CCC3=CC(=O)OC3)[C@H](C)C[C@H](O)[C@@]12C	Non-Toxic	
C[C@@H]1C[C@H](O)[C@]2(C)[C@H](CCC[C@@]2(O)CO)[C@@]1(C)CCc1ccoc1	Non-Toxic	inhibition (HT-22 [2]): Active
C[C@@H]1C[C@@H]2OC(=O)[C@@H]3CCC[C@H]([C@@]1(C)CCc1ccoc1)[C@@]23C	Non-Toxic	
C=C1CCC[C@@H]2[C@@](C)(CCC3=C[C@@H](OCC)OC3=O)[C@H](C)C[C@H](O)[C@@]12C	Non-Toxic	
CCO[C@@H]1C[C@@H]2C(C=O)=C(C)C[C@@H]2O1	Non-Toxic	
C=C1CCC[C@@H]2[C@@](C)(CC/C(=C/CO)CO)[C@H](C)C[C@H](O)[C@@]12C	Non-Toxic	
C=C1CCC[C@@H]2[C@@](C)(CCC3=CC(=O)OC3C)[C@H](C)C[C@H](O)[C@@]12C (stereo partly specified)	Non-Toxic	
C[C@@H]1C[C@H](O)[C@]2(C)[C@H](CCC[C@]23CO[C@@](C)(O)O3)[C@@]1(C)CCc1ccoc1	Non-Toxic	inhibition (HT-22 [6]): Active; pEC50 (HT-22 [7]): 5.00; inhibition (HT-22 [8]): inactive; inhibition (HT-22 [9]): Dose-Dependent Effect; inhibition (HT-22 [10]): Dose-Dependent Effect; inhibition (HT-22 [11]): inactive; Activity [12]: inactive; inhibition (HT-22 [13]): inactive; inhibition (HT-22 [14]): Active; Activity (HT-22 [15]): Dose-Dependent Effect; Activity [3]: inactive
CCOC(=O)CC(=O)OC[C@@]1(O)CCC[C@@H]2[C@@](C)(CCc3ccoc3)[C@H](C)C[C@H](O)[C@]21C	Non-Toxic	
